Laboratory results from patent US20240408096A1, “DOSING REGIMENS FOR ORAL ALK2 KINASE INHIBITORS” (BioCryst Pharmaceuticals, Inc., priority 2020, published 2024).
“Also recorded” adds a separate entry of the source.

How the values were obtained:
Format in all cases: in vivo, human
[1] = Phase 1 Parts 1 and 2 blood pressure pharmacodynamics / exposure-response
From the text: Where possible, systolic and diastolic BP measurements will be used to determine the change from baseline between each active treatment relative to that obtained on subjects receiving placebo within a study part. At each time point blood pressure data is collected, an individual subject's change from baseline will be calculated.

[2] = Phase 1 Part 1 (SAD) plasma PK incl. food effect; conditions: for AUC0-24, geometric least-squares mean / AUC0-inf, geometric least-squares mean / AUC0-last, geometric least-squares mean / Cmax, geometric least-squares mean: 15 mg single dose; for AUC0-24 / AUC0-inf / AUC0-last / Cmax / Tmax / t1/2: Part 1 SAD; for AUC0-24 / AUC0-inf / AUC0-last / Cmax: geometric mean (CV%); for Tmax / t1/2: median
Protocol: Four sequential SAD cohorts were dosed.
Escalation to the next higher dose level in Part 1 occurred only after satisfactory review of clinical safety and pharmacokinetic data. […] Subjects received the same study drug and dose (Compound A or placebo) in both dosing periods.
For each cohort of Part 1, the daily dose of study drug was administered as a single dose (1 time daily or QD). In Part 1 of the study, following a screening period to determine eligibility, subjects in each cohort entered the Phase 1 clinical research unit (CRU) on the afternoon of Day −1. Study eligibility was re-confirmed upon admission to the CRU, and subjects remained in the CRU overnight prior to dosing on Day 1. Following Day 1, subjects remained in the CRU for an additional 72 hours post-dose (i.e., discharge on Day 4) to enable collection of plasma and urine for PK samples and other study assessments. Subjects were discharged from the CRU following plasma PK sample collection on Day 4 and returned on Day 16 (+2 days) for a final follow-up visit.
Serial venous blood samples were withdrawn via an indwelling cannula or by venipuncture according to the schedule in Tables 4 and 5 for Parts 1 and 2, respectively. Samples were collected into 4 mL lithium heparin tubes. The acceptable deviations from the nominal blood sampling times in Part 1 and Part 2 are as follows: the pre-dose blood sample will be taken ≤1 hour before dosing; 0 to 1 hour post-dose samples will be taken within +2 minutes of the nominal post-dose sampling time; >1 to 12 hours post-dose samples will be taken within +10 minutes of the nominal post-dose sampling time; and >12 hours post-dose samples will be taken within +30 minutes of the nominal post-dose sampling time if subjects are resident in the clinic. […]
In all derivations of PK parameters, 0 will be substituted for concentrations below the quantification limit (BQL) of the assay. Samples that are BQL but are between 2 samples with detectable concentrations will be excluded from PK analysis.
Dose proportionality was evaluated over all fasted doses within a study part based upon AUC0-inf (Part 1), AUCtau (Part 2), AUC0-t, and Cmax using the power model. The analysis was performed for Day 1 (Parts 1 and 2) and Day 7 (Part 2).
Dose proportionality for PK parameters was assessed by restricted maximum likelihood using SAS PROC MIXED (SAS STAT software, Cary N.C.). The mean slope was estimated from the power model and the corresponding 90% confidence interval (CI) calculated. Dose proportionality was also examined using an analysis of variance (ANOVA) method, where PK parameters for each dose were compared with a reference dose on a pair-wise basis. The ratio of geometric least squares (GLS) means and the corresponding 90% CI was estimated for each PK parameter of interest.
Mixed-effects models were constructed with treatment fitted as a fixed effect and subject fitted as a random effect to provide point estimates for the ratios of PK parameters under fed relative to fasted conditions and their associated 90% CI.

[3] = Phase 1 Part 2 (MAD) safety and tolerability; conditions: healthy subjects
Protocol: The primary outcome measure of Part 1 and Part 2 will be: (1) measurement of the safety and tolerability by subject incidence of graded treatment-emergent adverse events (TEAEs), laboratory abnormalities, and changes to vital signs, ECGs, cardiac telemetry, and physical examination findings.
Four sequential MAD cohorts were dosed.
For each cohort of Part 2, the daily dose of study drug was administered as a single dose (1 time daily or QD). Similar to Part 1 of the study, following a screening period to determine eligibility, subjects in each cohort entered the CRU on the […] of Day −1. Study eligibility was re-confirmed upon admission to the CRU, and subjects remained in the CRU overnight prior to dosing on Day 1. Subjects received a final morning dose of study drug on the last day of dosing. Subjects were discharged from the CRU following sample collection on Day 11. Dosage administration was supervised by study personnel and all subjects completed dosing per protocol. […] Subjects returned to the CRU on Day 23 (+2 days) for final follow-up safety assessments.

[4] = all cohorts and placebo subjects
[5] = Part 1 cohort 4, 15 mg single dose

Which “correlation of BP with dose or exposure” value ([1]; Parts 1 and 2) does the source give for `COc1cc(-n2cnc(Nc3nc(N4CCC[C@H]4C(N)=O)nc4sccc34)c2)cc(OC)c1OC.O=C(O)CC(O)(CC(=O)O)C(=O)O` [Compound A] here?
The value was “no meaningful correlation”.

And the “slope of Δ diastolic BP-concentration model” value [1, 4]?
Its value is 0.00151.

And the “slope of Δ systolic BP-concentration model” value [1, 4]?
Its value is 0.00686.

What about the “AUC0-24, geometric least-squares mean” value ([2]; fasted) of the same molecule?
Its value is 1975,63 ng · h/mL.

What about the “AUC0-inf, geometric least-squares mean” value ([2]; fasted) of the same molecule?
Its value is 2075.34 ng·h/mL.

What about the “AUC0-last, geometric least-squares mean” value ([2]; fasted) of the same molecule?
Its value is 2019.55 ng·h/mL.

What about the “Cmax, geometric least-squares mean” value ([2]; fasted) of the same molecule?
Its value is 272.80 ng/mL.

What about the “AUC0-24, geometric least-squares mean” value ([2]; fed) of the same molecule?
Its value is 1742.05 ng·h/mL.

And the “AUC0-inf, geometric least-squares mean” value ([2]; fed)?
The value was 2087.05 ng·h/mL.

What about the “AUC0-last, geometric least-squares mean” value ([2]; fed) of the same molecule?
Its value is 2015.24 ng·h/mL.

What about the “Cmax, geometric least-squares mean” value ([2]; fed) of the same molecule?
Its value is 199.50 ng/mL.

What about the detectability in plasma ([2]; Part 1, all cohorts except cohort 1 (5 mg dose)) of the same molecule?
Its detectability in plasma is “remained detectable over the entire 72-hour data collection period”.

What about the “median time to maximum concentration (Tmax)” value ([2]; Part 1, all fasted cohorts) of the same molecule?
Its value is “approximately 2 hours”.

And the “dose proportionality of plasma exposure” value ([2]; Part 1, single oral doses 5 to 25 mg, healthy subjects)?
The value was “exhibits dose proportionality; also recorded: approximately linear and dose proportional”.

And the AUC0-24 ([2]; 5 mg single oral dose, fasted)?
Its AUC0-24 is 686.9 (30.7) ng · h/mL.

What about the AUC0-inf ([2]; 5 mg single oral dose, fasted) of the same molecule?
Its AUC0-inf is 755.7 (29.9) ng · h/mL.

And the AUC0-last ([2]; 5 mg single oral dose, fasted)?
Its AUC0-last is 717.0 (31.3) ng · h/mL.

What about the Cmax ([2]; 5 mg single oral dose, fasted) of the same molecule?
Its Cmax is 94.24 (45.2) ng/mL.

What about the Tmax ([2]; 5 mg single oral dose, fasted) of the same molecule?
The Tmax was 2.011 h.

What about the t1/2 ([2]; 5 mg single oral dose, fasted) of the same molecule?
Its t1/2 is 6.833 h.

And the AUC0-24 ([2]; 10 mg single oral dose, fasted)?
The AUC0-24 was 1545 (18.9) ng · h/mL.

What about the AUC0-inf ([2]; 10 mg single oral dose, fasted) of the same molecule?
The AUC0-inf was 1662 (17.3) ng · h/mL.

And the AUC0-last ([2]; 10 mg single oral dose, fasted)?
Its AUC0-last is 1579 (18.8) ng · h/mL.

What about the Cmax ([2]; 10 mg single oral dose, fasted) of the same molecule?
Its Cmax is 234.3 (26.1) ng/mL.

What about the Tmax ([2]; 10 mg single oral dose, fasted) of the same molecule?
Its Tmax is 2.013 h.

And the t1/2 ([2]; 10 mg single oral dose, fasted)?
Its t1/2 is 5.753 h.

What about the AUC0-24 ([2]; 15 mg single oral dose, fasted) of the same molecule?
The AUC0-24 was 1976 (16.6) ng · h/mL.

And the AUC0-inf ([2]; 15 mg single oral dose, fasted)?
Its AUC0-inf is 2214 (24.3) ng · h/mL.

And the AUC0-last ([2]; 15 mg single oral dose, fasted)?
Its AUC0-last is 2178 (24.8) ng · h/mL.

What about the Cmax ([2]; 15 mg single oral dose, fasted) of the same molecule?
The Cmax was 272.8 (42.5) ng/mL.

And the Tmax ([2]; 15 mg single oral dose, fasted)?
Its Tmax is 2.009 h.

What about the t1/2 ([2]; 15 mg single oral dose, fasted) of the same molecule?
The t1/2 was 7.639 h.

What about the AUC0-24 ([2]; 15 mg single oral dose, fed) of the same molecule?
Its AUC0-24 is 1742 (17.6) ng · h/mL.

And the AUC0-inf ([2]; 15 mg single oral dose, fed)?
Its AUC0-inf is 1978 (21.4) ng · h/mL.

And the AUC0-last ([2]; 15 mg single oral dose, fed)?
Its AUC0-last is 1898 (24.3) ng · h/mL.

And the Cmax ([2]; 15 mg single oral dose, fed)?
Its Cmax is 199.5 (41.2) ng/mL.

And the Tmax ([2]; 15 mg single oral dose, fed)?
The Tmax was 4.023 h.

And the t1/2 ([2]; 15 mg single oral dose, fed)?
The t1/2 was 6.688 h.

And the AUC0-24 ([2]; 25 mg single oral dose, fasted)?
The AUC0-24 was 3188 (14.2) ng · h/mL.

And the AUC0-inf ([2]; 25 mg single oral dose, fasted)?
Its AUC0-inf is 3517 (17.0) ng · h/mL.

What about the AUC0-last ([2]; 25 mg single oral dose, fasted) of the same molecule?
The AUC0-last was 3475 (17.8) ng · h/mL.

What about the Cmax ([2]; 25 mg single oral dose, fasted) of the same molecule?
Its Cmax is 474.1 (37.1) ng/mL.

And the Tmax ([2]; 25 mg single oral dose, fasted)?
Its Tmax is 2.071 h.

And the t1/2 ([2]; 25 mg single oral dose, fasted)?
Its t1/2 is 7.502 h.

What about the “GLSM AUC0-last and GLSM AUC0-inf fasted vs. fed” value [2, 5] of the same molecule?
The value was “approximately equivalent”.

What about the “Tmax, median of paired differences (95% CI) fed vs. fasted” value [2, 5] of the same molecule?
The value was 2.00 (0.99, 10.00).

What about the “decrease of GLSM AUC0-24 after high-fat meal vs fasted” value [2, 5] of the same molecule?
Its value is 12%.

What about the “decrease of GLSM Cmax after high-fat meal vs fasted” value [2, 5] of the same molecule?
Its value is 27%.

And the “dose proportionality of single dose Cmax” value ([2]; Part 1 single ascending oral dose cohorts (FIG. 2))?
Its value is “approximately linear and dose-proportional”.

And the “dose proportionality of single dose AUC0-24” value ([2]; Part 1 single ascending oral dose cohorts (FIG. 3))?
The value was “approximately linear and dose-proportional”.

What about the “grade 3 or 4 adverse events” value ([3]; Part 2, 5 mg to 20 mg QD over 7 days) of the same molecule?
The value was “no grade 3 or 4 adverse events”.

And the safety and tolerability ([3]; Part 2, multiple ascending oral doses 5 mg to 20 mg QD over 7 days)?
The safety and tolerability was “safe and generally well tolerated”.
